Measured values reported in US20040167112A1, “Use of estrogen receptor alpha modulators for the treatment of multiple sclerosis” (Wyeth, priority 2003, published 2004).
Entries after “also recorded” stand apart in the source; their conditions may differ.

Experiments:
[1] = test system: experimental autoimmune encephalomyelitis (EAE), brain and spinal cord; test: Histological analysis of brains and spinal cords of EAE mice at peak disease; type: in vivo, SJL mice
Protocol: Histological Analysis. At peak disease (14 days PT), mice were euthanized with CO2. […] Brains were cut into three segments (roughly, anterior cerebrum, midbrain and cerebellum) and embedded as a single block. […] A standard H&E (hematoxylin and eosin) glass slide was prepared from each tissue block (brain and spinal cord) from each mouse submitted with two resulting H&E slides per mouse evaluated. Slides were evaluated and lesions seen were graded subjectively for presence (P=present) and/or severity. […] The location of findings, relative to the organ, was denoted as perivascular, periventricular, ependymal or meningeal, and also as focal (in small areas or not throughout the section), or diffuse (throughout the section examined). Focal was defined as very localized and not affecting every structure. Findings not defined as focal were diffuse or affecting every structure (e.g. all vessels). […] Typical murine models of EAE have scattered foci of slight to moderate-sized aggregates of leukocytes and rarely have diffuse infiltrates in the affected tissues.

[2] = test system: experimental autoimmune encephalomyelitis (EAE); test: EAE induced by adoptive transfer of PLP-primed effector cells: clinical disease; type: in vivo, SJL mice; conditions: for onset, incidence and severity of disease (EAE): ovariectomized female SJL recipient mice, compounds daily s.c. or p.o. from 5-7 days before transfer, severity scale 0-6
[3] = test system: PLP-primed effector cells (splenocytes); test: Cytokine production by PLP-primed effector cells upon antigen stimulation in vitro; type: cell-based, SJL mice; conditions: compound 1 μM, 5 μg/ml PLP, 3 days
Protocol: To examine in vitro the effect of compounds on cytokine production by PLP-primed effector cells, SJL mice were immunized with PLP emulsified in CFA. After 10 days, spleens were collected and single cell suspensions were made. After lysis of red blood cells, splenocytes were stimulated with 5 μg/ml PLP in the presence of compound for 3 days at 37° C., 5% CO2. Control samples were not stimulated and cultured in medium only (“medium”). Compounds were added at a final concentration of 1 μM. After the 3-day incubation, supernatants were collected and stored at −20° C. Cytokines (TNF-α, IFN-γ, IL-5, IL-4, IL-2) were measured in the supernatants using a Cytometric Bead Array kit.

[4] = test system: PLP-primed effector T cells (splenocytes); test: Proliferation of effector T cells upon antigen (PLP) stimulation, CFSE flow cytometry; type: cell-based, SJL mice; conditions: compound 1 μM, 3 days
Source text: Effect of compounds on proliferation of effector T cells upon antigen stimulation To examine the effect of proliferation of effector T cells in vitro in response to PLP stimulation, T-cell proliferation was examined by flow cytometry using the following assay. SJL mice were immunized with PLP emulsified in CFA. After 10 days, spleens were collected and single cell suspensions were made. After lysis of red blood cells, splenocytes were labeled with carboxy fluorescein succinimidyl ester (CFSE). CFSE-labeled cells were then incubated with PLP for 3 days at 37° C., 5% CO2. Compounds were added at a final concentration of 1 μM. To determine the percentage of CD4^+ cells that divided, the CFSE-labeled cells were stained with antibodies specific for the CD4 marker prior to flow cytometric analysis.

[5] = Table II, 14 days PT, grade 0-5
[6] = Table II, 14 days PT, grade 0 within normal limits to 5 severe
[7] = Table III (ER-selective agonists), 14 days PT
[8] = Table III (ER-selective agonists), 14 days PT, grade 0-5

Row | SMILES | Brain Meningeal/Perivascular Leukocyte Infiltrates: number of brains with finding/total number evaluated ([1]; Table II, 14 days PT) | Spinal Cord Demyelination: number with finding/total number evaluated ([1]; Table II, 14 days PT) | Spinal Cord Meningeal/Perivascular Leukocyte Infiltrates: number with finding/total number evaluated ([1]; Table II, 14 days PT) | Spinal Cord Meningeal/Perivascular Leukocyte Infiltrates: average severity grade of lesions seen [1, 5] | Brain Meningeal/Perivascular Leukocyte Infiltrates: average severity grade of lesions seen [1, 6] | Brain Meningeal/Perivascular Leukocyte Infiltrates: number of brains with finding/total number evaluated [1, 7] | Spinal Cord Demyelination: number with finding/total number evaluated [1, 7] | Spinal Cord Meningeal/Perivascular Leukocyte Infiltrates: number with finding/total number evaluated [1, 7] | Brain Meningeal/Perivascular Leukocyte Infiltrates: average severity grade of lesions seen [1, 8] | Spinal Cord Demyelination: average severity grade of lesions seen [1, 8] | Spinal Cord Meningeal/Perivascular Leukocyte Infiltrates: average severity grade of lesions seen [1, 8] | onset, incidence and severity of disease (EAE) [2] | other results
1 | C[C@]12CC[C@@H]3c4ccc(O)cc4CC[C@H]3[C@@H]1CC[C@@H]2O [Compound E2, 17β-estradiol] | 4/4 | ¾ | ¾ | 1.7 | 2.5 | 3/4 | 1/4 | 2/4 | 1.7 | 1 | 1 | delay in onset as well as decreased incidence and severity of disease | Spinal Cord Demyelination: average severity grade of lesions seen [1, 5]: 1.3; Distribution of Brain Lesions [1, 7]: Meningeal
2 | O=C(c1ccc(OCCN2CCCCC2)cc1)c1c(-c2ccc(O)cc2)sc2cc(O)ccc12 [Raloxifene, raloxifene] | – | – | – | – | – | – | – | – | – | – | – | delay in onset as well as decreased incidence and severity of disease; also recorded: delayed onset of disease, as well as decreased incidence and severity | –
3 | C[C@]12CC[C@@H]3c4ccc(O)cc4C[C@@H](CCCCCCCCC[S+]([O-])CCCC(F)(F)C(F)(F)F)[C@H]3[C@@H]1CC[C@@H]2O (some centres unmarked) [ICI 182,780] | – | – | – | – | – | – | – | – | – | – | – | – | effect of ER antagonist on estrogen-mediated suppression of disease ([2]; mice treated with both E2 and ICI 182,780): abolished the effect of E2 on disease
4 | CCCc1c(-c2ccc(O)cc2)nn(-c2ccc(O)cc2)c1-c1ccc(O)cc1 [PPT, propylpyrazole triol] | – | – | – | – | – | – | 0/4 | 0/4 | 1 | – | – | – | –
5 | C=Cc1cc(O)cc2nc(-c3ccc(O)c(F)c3)oc12 [ERβ-041] | – | – | – | – | – | 4/4 | 2/4 | 2/4 | 2.3 | 1.5 | 1.5 | – | –
6 | Cc1c(-c2ccc(O)cc2)n(Cc2ccc(OCCN3CCCCC3)cc2)c2ccc(O)cc12.Cl.O [Compound A] | 3/5 | 0/5 | 1/5 | 1 | 2.7 | – | – | – | – | – | – | – | demyelination in spinal cords ([1]; SERM experiment): no demyelination was detected; amount of inflammatory cells infiltrating the spinal cords and brains ([1]; compared to mice from other treatment groups (text, SERM experiment)): reduction; pathology and leukocyte infiltration in the brains and spinal cords ([1]; conclusions): reduced pathology and leukocyte infiltration; IFN-γ production by effector T cells upon antigen stimulation [3]: suppressed; IL-4 production by effector T cells upon antigen stimulation [3]: concomitant increase; TNF-α production by effector T cells upon antigen stimulation [3]: inhibited; cytokine production by effector cells upon antigen stimulation [3]: decreased cytokine production; onset, incidence and severity of disease (EAE) ([2]; hydrochloride monohydrate): delay in onset as well as decreased incidence and severity of disease; also recorded: delayed onset of disease, as well as decreased incidence and severity; proliferation of CD4+ cells upon antigen stimulation [4]: suppressed; proliferation of CD4− cells upon antigen stimulation [4]: suppressed; proliferation of antigen-specific T cells [4]: decreased proliferation
